These results are taken from PMC11483378, “Triazole-Based Thiamine Analogues as Inhibitors of Thiamine Pyrophosphate-Dependent Enzymes: 1,3-Dicarboxylate for Metal Binding” (ACS Omega, 2024).

Read-outs that look alike come from different tables or passages of the source.

The target in series [1] is A. viridans PO (Aerococcus viridans, UniProt A9X9K8). Nature of the series: A. viridans PO inhibitory activity assay (quinoneimine dye). The format is biochemical. The procedure:
A. viridans PO and horseradish peroxidase were purchased from Sigma. A. viridans PO activity was determined by monitoring appearance of quinoneimine dye at 550 nm using a microplate reader (CLARIOstar) and conducted as described[5] with some modifications. […] The reaction buffer (50 mM KH2PO4 and 10 mM MgCl2, pH 5.9) contained TPP at specified concentrations, 10 μM flavin adenine dinucleotide, 0.15% 4-aminoantipyrine, 0.3% N-ethyl-N-(2-hydroxy-3-sulfopropyl)-m-toluidine (EHSPT), 50 μg/mL horseradish peroxidase, and 0.35 U/mL A. viridans PO. The reaction mixture was preincubated at 37 °C with inhibitor for 30 min, and then the reaction was initiated by adding pyruvate to a final concentration of 50 mM. To determine the IC50, TPP concentration was set at 60 μM with varying inhibitor concentrations. One unit of PO activity is defined as the production of 1 μmol of hydrogen peroxide per minute. The IC50 values were calculated from nonlinear regression curve fitting using GraphPad Prism.
(§1) Enzyme inhibitory activity assays – methods and results (Figures S1-4) […]
(§2) The compound […]
A. viridans PO inhibitory activity assay. A. viridans PO and horseradish peroxidase were purchased from Sigma. A. viridans PO activity was determined by monitoring appearance of quinoneimine dye at 550 nm using a microplate reader (CLARIOstar) and conducted as described3 with some modifications. […]
buffer (50 mM KH2PO4 and 10 mM MgCl2, pH 5.9) contained TPP at specified concentrations, 10 µM flavin adenine dinucleotide (FAD), 0.15% 4-aminoantipyrine, 0.3% N-ethyl-N-(2-hydroxy-3-sulfopropyl)-m-toluidine (EHSPT), 50 µg/mL horseradish peroxidase and 0.35 U/mL A. viridans PO. The reaction mixture was preincubated at 37 °C with inhibitor for 30 min, then reaction was initiated by adding pyruvate to a final concentration of 50 mM. To determine the IC50, TPP concentration was set was set at 60 µM with varying inhibitor concentrations. One unit of PO activity is defined as the production of 1 μmol of hydrogen peroxide per minute. The IC 50 values were calculated from non-linear regression curve fitting using GraphPad Prism. […]

For series [2], the target named is E. coli OGDH E1 (Escherichia coli, UniProt P0AFG3). The experiment in a line: E. coli OGDH E1 inhibitory activity assay (DCPIP reduction). The series is classed as biochemical. The procedure: E. coli OGDH E1 was from material donated by R. Frank. E. coli OGDH E1 activity was determined by monitoring DCPIP reduction at 600 nm using a microplate reader (CLARIOstar) and conducted as described[5] with some modifications. […] The reaction buffer (50 mM KH2PO4 and 2 mM MgCl2, pH 7) contained TPP at specified concentrations, 0.5 mM DCPIP, and 6.7 mg/mL E. coli OGDH E1. The reaction mixture was preincubated at 37 °C with the inhibitor for 60 min, and then the reaction was initiated by adding α-ketoglutarate to a final concentration of 10 mM. To determine the IC50, the TPP concentration was set at 60 μM with varying inhibitor concentrations. Specific activity was calculated using the molar extinction coefficient of DCPIP, 21 mM^–1 cm^–1.[28] The IC50 values were calculated from nonlinear regression curve fitting using GraphPad Prism.
as §1, §2
E. coli OGDH E1 inhibitory activity assay. E. coli OGDH E1 was from material donated by R. Frank. E. coli OGDH E1 activity was determined by monitoring DCPIP reduction at 600 nm using a microplate reader (CLARIOstar) and conducted as described3 with some modifications. The percentage inhibition of compounds against E. coli OGDH E1 was assayed at 250 μM. The reaction buffer (50 mM KH 2PO4 and 2 mM MgCl2, pH 7) contained TPP at specified concentrations, 0.5 mM DCPIP, and 6.7 mg/ml E. coli OGDH E1. The reaction mixture was preincubated at 37 °C with the inhibitor for 60 min, then reaction was initiated by adding α-ketoglutarate to a final concentration of 10 mM. To determine the IC50, TPP concentration was set at 60 µM with varying inhibitor concentrations. Specific activity was […]

Series [3] is described as follows: PAMPA (parallel artificial membrane permeability assay). The format is in vitro ADME. The settings on record: for Papp at 10 h, 500 µM: PAMPA, read-out: PAMPA log Pe (converted); for Papp at 10 h, 500 µM / Fa (fraction absorbed): compounds at 500 µM, 5% DMSO in PBS pH 7.4, 10 hours, room temperature. The procedure:
PAMPA – methods and results (Table S2)
PAMPA was carried out in 96-well microtiter filter plates obtained from Millipore as described1 with some modifications. Each well of the filter plate was impregnated with 15 µL of 5% hexadecane dissolved in hexane (i.e. total amount of hexadecane: 0.75 µL) for at least 10 minutes in ventilated environment to allow for complete evaporation of hexane. Donor compartments were filled with 200 µL compound-containing donor solutions of compounds dissolved in 5% DMSO, phosphate buffered saline PBS) and connected to acceptor plate prefilled with buffer (5% DMSO in PBS, pH 7.4). The resulting sandwich was incubated at room temperature under gentle shaking and wrapped in wet paper towels to avoid evaporation. After 10 hours, the sandwich was disassembled and the solutions in the acceptor and donor were transferred to a disposable UV-transparent plate. UV absorption was measured at wavelengths between 220 and 340 nm using a microplate reader (CLARIOstar).
Compounds were tested at 500 µM. Calibration to determine concentration of compounds were performed with varying compound concentrations in buffer (5% DMSO in PBS).
The artificial membrane permeability is expressed as fraction absorbed (Fa%)2 or log Pe (log of the effective permeability)1. LogD values at pH 7.4 were calculated using MarvinSketch.
Fa% = 100 ∙CA ∙VA / CD0 ∙ VD where: CA = final drug concentration in the acceptor well (µM)
VA = volume in the acceptor well (cm3)
CD0 = Initial drug concentration in the donor well (µM)
VD = volume in the donor well (cm3) log P (cm/s) = log -ln 1-CA/Cequilibrium
S = surface area (cm2), typically 0.268 cm2
Cequilibrium = theoretical equilibrium concentration = [CD ∙VD+CA ∙VA] / [VD+VA] where: CD = final drug concentration in the donor well (µM)
CA = final drug concentration in the acceptor well (µM)
Table S2. Permeability data.
Compounds Fa (%) PAMPA log Pe (cm/s) cLogD (pH = 7.4)

Setting [4] is: [Compound] = 250 μM, [TPP] = 50 μM.
Setting [5] is: [Compound] = [TPP] = 250 μM; read-out: % Inhibition (1:1).
Setting [6] is: [TPP] = 60 µM; read-out: IC50 (μM ± SEM).
Where [7] appears, read: calculated from KM(TPP) 5 µM using [TPP]/IC50 = KM(TPP)/KI; read-out: KI.
The mark [8] stands for this setting: calculated from KM(TPP) 3 µM using [TPP]/IC50 = KM(TPP)/KI; read-out: KI.
[9] abbreviates: calculated from KM(TPP) 5 µM using [TPP]/IC50 = KM(TPP)/KI.
The mark [10] stands for this setting: read-out: IC50 (μM ± SEM); [TPP] = 60 µM.
Where [11] appears, read: calculated from KM(TPP) 3 µM using [TPP]/IC50 = KM(TPP)/KI.

Sequence of A. viridans PO (A9X9K8 entry or part of it): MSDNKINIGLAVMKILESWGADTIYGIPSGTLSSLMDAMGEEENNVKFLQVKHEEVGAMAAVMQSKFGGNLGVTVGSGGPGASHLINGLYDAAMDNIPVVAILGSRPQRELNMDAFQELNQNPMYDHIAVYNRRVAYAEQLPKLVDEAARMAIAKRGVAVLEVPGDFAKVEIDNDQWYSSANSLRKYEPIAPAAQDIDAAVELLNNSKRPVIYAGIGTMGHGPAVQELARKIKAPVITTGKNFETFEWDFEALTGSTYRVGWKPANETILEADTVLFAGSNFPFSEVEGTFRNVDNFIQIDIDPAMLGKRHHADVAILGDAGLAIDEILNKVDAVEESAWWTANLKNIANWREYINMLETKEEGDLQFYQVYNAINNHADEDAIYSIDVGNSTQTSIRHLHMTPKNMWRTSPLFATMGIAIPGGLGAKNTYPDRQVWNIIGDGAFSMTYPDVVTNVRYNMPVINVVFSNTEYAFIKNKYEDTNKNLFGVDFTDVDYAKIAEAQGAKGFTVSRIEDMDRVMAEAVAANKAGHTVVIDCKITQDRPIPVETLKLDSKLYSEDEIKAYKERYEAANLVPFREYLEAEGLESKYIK
Sequence of E. coli OGDH E1 (P0AFG3 whole entry): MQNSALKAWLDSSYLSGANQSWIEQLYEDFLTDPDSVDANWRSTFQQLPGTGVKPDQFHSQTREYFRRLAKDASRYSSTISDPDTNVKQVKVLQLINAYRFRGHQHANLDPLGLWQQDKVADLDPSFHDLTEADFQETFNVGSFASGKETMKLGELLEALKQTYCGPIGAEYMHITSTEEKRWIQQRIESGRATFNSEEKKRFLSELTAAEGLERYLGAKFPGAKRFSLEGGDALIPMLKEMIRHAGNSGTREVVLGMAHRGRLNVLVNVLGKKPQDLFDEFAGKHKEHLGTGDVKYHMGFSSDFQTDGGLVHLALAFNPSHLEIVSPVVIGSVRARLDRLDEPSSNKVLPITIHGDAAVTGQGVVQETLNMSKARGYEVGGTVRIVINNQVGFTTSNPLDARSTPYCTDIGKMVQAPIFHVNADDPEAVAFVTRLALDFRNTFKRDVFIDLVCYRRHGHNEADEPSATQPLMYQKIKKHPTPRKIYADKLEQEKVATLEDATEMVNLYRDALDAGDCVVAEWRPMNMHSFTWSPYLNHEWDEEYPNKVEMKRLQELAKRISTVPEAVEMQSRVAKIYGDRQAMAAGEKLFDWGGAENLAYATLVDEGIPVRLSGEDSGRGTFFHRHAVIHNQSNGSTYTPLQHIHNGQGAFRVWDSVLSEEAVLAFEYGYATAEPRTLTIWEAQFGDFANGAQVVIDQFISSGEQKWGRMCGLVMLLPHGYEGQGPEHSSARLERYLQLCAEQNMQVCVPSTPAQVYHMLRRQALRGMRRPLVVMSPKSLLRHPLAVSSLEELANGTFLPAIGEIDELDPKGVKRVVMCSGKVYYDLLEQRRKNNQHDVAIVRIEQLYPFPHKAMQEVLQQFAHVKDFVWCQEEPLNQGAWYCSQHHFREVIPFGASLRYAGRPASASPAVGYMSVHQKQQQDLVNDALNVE

Broadly, the inhibition is the share of the control response that was lost under treatment. Broadly, the IC50 is the concentration that gives 50% inhibition. Usually Ki stands for the equilibrium dissociation constant of an inhibitor or competing ligand from its target. With `COC(=O)C(CCc1cn(Cc2cnc(C)nc2N)nn1)C(=O)OC` [13a], the figures for the “% Inhibition (5:1)” value in series [1] (setting [4]) and in series [2] (setting [4]) were 62 ± 4% and 40 ± 3%, respectively. In addition, the inhibition at 250 µM was 26 ± 4% in series [1] (setting [5]) and less than 20% in series [2] (setting [5]). In addition, the “vs TPP: affinity of the compound relative to that of TPP (= [TPP]/IC50)” value turned out to be 0.32 in series [1] ([TPP] = 60 µM) and 0.15 in series [2] ([TPP] = 60 µM). Further, the IC50 in series [1] (setting [6]) was determined as 189 ± 44 µM; in series [2] (setting [6]), 394 ± 65 µM. Also, the Ki in series [1] (setting [7]) is 16 µM; in series [2] (setting [8]), 20 µM. In addition, the “membrane permeability in PAMPA (in words)” value (shortened to “membrane permeability”) in series [3] is on record as “membrane-permeable”. Besides, in series [3], the Papp at 10 h, 500 µM is 6.31 ×10⁻⁶ cm/s. Moreover, in series [3], the “Fa (fraction absorbed)” value was found to be 39%.
On to `COC(=O)C(CCCc1cn(Cc2cnc(C)nc2N)nn1)C(=O)OC` [13b], for which the “% Inhibition (5:1)” value in series [1] (setting [4]) came out at 65 ± 5%; in series [2] (setting [4]), 54 ± 3%. In addition, the inhibition at 250 µM in series [1] (setting [5]) came to 29 ± 4%; in series [2] (setting [5]) it was 23 ± 4%. The entries for the “vs TPP: affinity of the compound relative to that of TPP (= [TPP]/IC50)” value in series [1] ([TPP] = 60 µM) and in series [2] ([TPP] = 60 µM) were 0.39 and 0.24, respectively. Further, the figures for the IC50 in series [1] (setting [6]) and in series [2] (setting [6]) were 152 ± 24 µM and 251 ± 37 µM, respectively. In addition, the Ki in series [1] (setting [7]) and in series [2] (setting [8]) was 13 µM in each case. For the same compound, the Papp at 10 h, 500 µM in series [3] was 6.31 ×10⁻⁶ cm/s. In addition, the “Fa (fraction absorbed)” value in series [3] was 42%.
Consider `Cc1ncc(Cn2cc(CCC(C(=O)[O-])C(=O)[O-])nn2)c(N)n1.[K+].[K+]` [14a], for which the “% Inhibition (5:1)” value in series [1] (setting [4]) was determined as 76 ± 3%; in series [2] (setting [4]) it was 76 ± 5%. The inhibition at 250 µM in series [1] (setting [5]) turned out to be 41 ± 3%; in series [2] (setting [5]), 36 ± 4%. In addition, the “vs TPP: affinity of the compound relative to that of TPP (= [TPP]/IC50)” value in series [1] ([TPP] = 60 µM) was found to be 0.69; in series [2] ([TPP] = 60 µM), 0.57. In addition, the Ki is 7.3 µM in series [1] (setting [9]) and 5.3 µM in series [2] (setting [11]). The IC50 is 87 ± 11 µM in series [1] (setting [10]) and 105 ± 11 µM in series [2] (setting [10]). Also, the “membrane permeability” value in series [3] is “impermeable”. The Papp at 10 h, 500 µM in series [3] is 0.316 ×10⁻⁶ cm/s. For the same compound, the “Fa (fraction absorbed)” value in series [3] is on record as 2%.
As for `Cc1ncc(Cn2cc(CCCC(C(=O)[O-])C(=O)[O-])nn2)c(N)n1.[K+].[K+]` [14b], the “% Inhibition (5:1)” value in series [1] (setting [4]) turned out to be 85 ± 4%; in series [2] (setting [4]), 83 ± 4%. In addition, the inhibition at 250 µM in series [1] (setting [5]) was 55 ± 4%; in series [2] (setting [5]), 47 ± 3%. Also, the “vs TPP: affinity of the compound relative to that of TPP (= [TPP]/IC50)” value in series [1] ([TPP] = 60 µM) is 1.22; in series [2] ([TPP] = 60 µM), 0.90. Further, the Ki in series [1] (setting [9]) was 4.1 µM; in series [2] (setting [11]), 3.4 µM. Besides, the IC50 in series [1] (setting [10]) amounted to 49 ± 7 µM; in series [2] (setting [10]) it was 67 ± 9 µM. In series [3], the “membrane permeability” value is listed as “membrane-impermeable”. Also, the Papp at 10 h, 500 µM in series [3] is 0.158 ×10⁻⁶ cm/s. Moreover, the “Fa (fraction absorbed)” value in series [3] worked out at 1%.
On to `COC(=O)CCCc1cn(Cc2cnc(C)nc2N)nn1` [15a], for which the “% Inhibition (5:1)” value in series [1] (setting [4]) worked out at 52 ± 3%; in series [2] (setting [4]) it was 38 ± 3%. The inhibition at 250 µM is 21 ± 4% in series [1] (setting [5]) and less than 20% in series [2] (setting [5]). Also, the “vs TPP: affinity of the compound relative to that of TPP (= [TPP]/IC50)” value in series [1] ([TPP] = 60 µM) came out at 0.22; in series [2] ([TPP] = 60 µM) it was 0.15. The values for the half-inhibitory concentration (IC50) in series [1] (setting [6]) and in series [2] (setting [6]) were 274 ± 52 µM and 407 ± 73 µM, respectively. Also, the Ki was 23 µM in series [1] (setting [7]) and 20 µM in series [2] (setting [8]). In series [3], the “membrane permeability” value was “membrane-permeable”. The Papp at 10 h, 500 µM in series [3] is 5.01 ×10⁻⁶ cm/s. In series [3], the “Fa (fraction absorbed)” value is on record as 38%.
